Here are results for ten compounds from patent US20240376099A1, “COMPOUNDS AND COMPOSITIONS AS INHIBITORS OF ENDOSOMAL TOLL-LIKE RECEPTORS” (Novartis AG, priority 2016, published 2024).

Structures are written as SMILES.

The target of the assay is T1, TLR7 (Homo sapiens, UniProt Q9NYK1).
T1 construct: Fresh blood was collected from normal human donors; endogenous in cells; host or cells: human PBMCs from fresh donor blood
T1 sequence (Q9NYK1 27-1049): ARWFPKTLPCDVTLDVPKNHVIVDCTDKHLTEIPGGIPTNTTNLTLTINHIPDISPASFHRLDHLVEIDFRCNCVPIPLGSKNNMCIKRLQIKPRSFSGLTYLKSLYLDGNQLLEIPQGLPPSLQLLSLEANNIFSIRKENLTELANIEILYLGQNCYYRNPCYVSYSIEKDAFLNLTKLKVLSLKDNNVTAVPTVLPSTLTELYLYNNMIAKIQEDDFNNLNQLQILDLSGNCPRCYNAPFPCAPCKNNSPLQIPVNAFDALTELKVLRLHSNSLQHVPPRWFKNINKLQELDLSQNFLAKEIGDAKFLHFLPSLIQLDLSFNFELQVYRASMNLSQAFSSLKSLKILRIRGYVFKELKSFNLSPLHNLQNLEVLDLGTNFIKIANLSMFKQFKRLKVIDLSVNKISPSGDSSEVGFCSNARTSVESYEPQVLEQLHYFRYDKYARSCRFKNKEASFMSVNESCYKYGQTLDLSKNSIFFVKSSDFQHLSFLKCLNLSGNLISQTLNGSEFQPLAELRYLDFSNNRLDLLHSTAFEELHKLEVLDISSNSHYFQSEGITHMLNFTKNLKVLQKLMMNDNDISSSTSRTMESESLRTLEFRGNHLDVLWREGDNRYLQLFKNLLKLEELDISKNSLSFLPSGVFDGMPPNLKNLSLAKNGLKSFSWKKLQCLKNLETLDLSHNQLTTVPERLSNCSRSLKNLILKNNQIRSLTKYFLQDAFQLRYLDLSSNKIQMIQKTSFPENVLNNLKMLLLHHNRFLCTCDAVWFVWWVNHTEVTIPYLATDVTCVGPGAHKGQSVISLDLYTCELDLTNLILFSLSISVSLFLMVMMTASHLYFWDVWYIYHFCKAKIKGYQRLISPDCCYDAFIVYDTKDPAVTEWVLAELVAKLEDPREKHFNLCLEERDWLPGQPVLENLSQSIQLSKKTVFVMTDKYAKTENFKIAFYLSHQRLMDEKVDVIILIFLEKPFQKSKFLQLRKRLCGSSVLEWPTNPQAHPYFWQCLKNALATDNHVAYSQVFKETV
In words: huPBMC TLR7 Antagonist IFNα Assay. It is filed as cell-based. To be noted: human PBMCs stimulated with ssRNA40 10 μg/mL (DOTAP), 14-16 hrs; IFNα2b AlphaLISA read-out. The gist of the method: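 Human PBMCs from fresh donor blood (150,000 cells/well) stimulated 14–16 h at 37 °C with DOTAP-complexed ssRNA40 (final 1 μg/ml for TLR8, 10 μg/mL for TLR7) or ODN2216 (final 0.3 μM, TLR9), 0.25% DMSO, ten-point 1/3 compound dilutions. Supernatant IL-6 read by HTRF (TLR8); IFNα by IFNα2b AlphaLISA (TLR7/TLR9).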
In general terms: In Alpha technology, singlet oxygen from a donor bead excites a nearby acceptor bead.

A word on the IC50: it is the midpoint of a concentration-inhibition curve.

`Cc1cc(N2CCc3c(c(C)nn3CC34CCC(N)(CC3)CC4)C2)c2cnn(C)c2n1` [Compound No. 1, 4-((5-(1,6-dimethyl-1H-pyrazolo[3,4-b]pyridin-4-yl)-3-methyl-4,5,6,7-tetrahydro-1H-pyrazolo[4,3-c]pyridin-1-yl)methyl)bicyclo[2.2.2]octan-1-amine]: the IC50 was 25 nM.

`Cc1cc(N2CCc3c(c(C)nn3CC34CCC(N)(CC3)CC4)C2)c2cn[nH]c2n1` [Compound No. 2, 4-((3-methyl-5-(6-methyl-1H-pyrazolo[3,4-b]pyridin-4-yl)-4,5,6,7-tetrahydro-1H-pyrazolo[4,3-c]pyridin-1-yl)methyl)bicyclo[2.2.2]octan-1-amine]: the IC50 is 38 nM. `Cc1cc(N2CCc3c(c(C)nn3CC34CCC(N(C)C(=O)OC(C)(C)C)(CC3)CC4)C2)c2cnn(C)c2n1` [Compound No. 49, tert-butyl (4-((5-(1,6-dimethyl-1H-pyrazolo[3,4-b]pyridin-4-yl)-3-methyl-4,5,6,7-tetrahydro-1H-pyrazolo[4,3-c]pyridin-1-yl)methyl)bicyclo[2.2.2]octan-1-yl)(methyl)carbamate]: the IC50 stood at 20 nM. On to `CNC12CCC(Cn3nc(C)c4c3CCN(c3cc(C)nc5c3cnn5C)C4)(CC1)CC2` [Compound No. 50, 4-((5-(1,6-dimethyl-1H-pyrazolo[3,4-b]pyridin-4-yl)-3-methyl-4,5,6,7-tetrahydro-1H-pyrazolo[4,3-c]pyridin-1-yl)methyl)-N-methylbicyclo[2.2.2]octan-1-amine], for which the IC50 amounted to 6 nM. With `Cc1cc(N2CCc3c(c(C)nn3CC34CCC(NC(=O)OC5(C)CC5)(CC3)CC4)C2)c2cnn(C)c2n1` [Compound No. 51, 1-methylcyclopropyl (4-((5-(1,6-dimethyl-1H-pyrazolo[3,4-b]pyridin-4-yl)-3-methyl-4,5,6,7-tetrahydro-1H-pyrazolo[4,3-c]pyridin-1-yl)methyl)bicyclo[2.2.2]octan-1-yl)carbamate] the figure was 7 nM; with `COc1ccc(Cn2ncc3c(N4CCc5c(c(C)nn5CC56CCC(N)(CC5)CC6)C4)cc(C)nc32)cc1` [Compound No. 53, 4-((5-(1-(4-methoxybenzyl)-6-methyl-1H-pyrazolo[3,4-b]pyridin-4-yl)-3-methyl-4,5,6,7-tetrahydro-1H-pyrazolo[4,3-c]pyridin-1-yl)methyl)bicyclo[2.2.2]octan-1-amine], 843 nM.

For `Cc1cc(N2CCc3c(c(C)nn3CC34CCC(N5CCCC5)(CC3)CC4)C2)c2cnn(C)c2n1` [Compound No. 58, 5-(1,6-dimethyl-1H-pyrazolo[3,4-b]pyridin-4-yl)-3-methyl-1-((4-(pyrrolidin-1-yl)bicyclo[2.2.2]octan-1-yl)methyl)-4,5,6,7-tetrahydro-1H-pyrazolo[4,3-c]pyridine], the IC50 was 3 nM. Next, `Cc1cc(N2CCc3c(c(C)nn3CC34CCC(N5CCOCC5)(CC3)CC4)C2)c2cnn(C)c2n1` [Compound No. 59, 4-(4-((5-(1,6-dimethyl-1H-pyrazolo[3,4-b]pyridin-4-yl)-3-methyl-4,5,6,7-tetrahydro-1H-pyrazolo[4,3-c]pyridin-1-yl)methyl)bicyclo[2.2.2]octan-1-yl)morpholine]: 4 nM; `COCCNC12CCC(Cn3nc(C)c4c3CCN(c3cc(C)nc5c3cnn5C)C4)(CC1)CC2` [Compound No. 69, 4-((5-(1,6-dimethyl-1H-pyrazolo[3,4-b]pyridin-4-yl)-3-methyl-4,5,6,7-tetrahydro-1H-pyrazolo[4,3-c]pyridin-1-yl)methyl)-N-(2-methoxyethyl)bicyclo[2.2.2]octan-1-amine]: 9 nM; `Cc1cc(N2CCc3c(c(C)nn3CC34CCC(N(C)C5COC5)(CC3)CC4)C2)c2cnn(C)c2n1` [Compound No. 77, N-(4-((5-(1,6-dimethyl-1H-pyrazolo[3,4-b]pyridin-4-yl)-3-methyl-4,5,6,7-tetrahydro-1H-pyrazolo[4,3-c]pyridin-1-yl)methyl)bicyclo[2.2.2]octan-1-yl)-N-methyloxetan-3-amine]: 10 nM.
